Assay results reported in US11845742B2, “Therapeutic compounds and methods to treat infection” (priority 2017, dated 2023).
Values after ≈ are worked out from the molar mass of the structure shown. Read-outs that look alike come from different tables or passages of the source.

Key:
[1] = system: P. Aeruginosa PAO1; experiment: Intrinsic MIC assay (broth microdilution), P. aeruginosa PAO1; assay type: cell-based, Pseudomonas aeruginosa; conditions: for MIC: Pseudomonas aeruginosa, read-out: Intrinsic MIC
Protocol: (§1) MIC assays were conducted in accordance with Clinical and Laboratory Standards Institute (CLSI) guidelines for broth microdilution.
(§2) The intrinsic MIC of the experimental EPIs was tested with the method described. The 2-fold serial dilution begins with 100 μg/mL of tested compound in the first column of the 96-well plates. The following Gram-negative bacterial strains were included in these assays: • Escherichia coli ATCC 25922 • Klebsiella pneumoniae ATCC 13883 and ATCC 10031 • Pseudomonas aeruginosa ATCC 27853. • Pseudomonas aeruginosa PAO1 • Acinetobacter baumannii ATCC 19606

[2] = system: P. Aeruginosa PAO1; experiment: MIC assay in the presence of a bacterial efflux pump inhibitor (EPI), P. aeruginosa PAO1; assay type: cell-based, Pseudomonas aeruginosa; conditions: in the presence of 12.5 μg/ml of N-(((2S,4R)-4-(aminomethyl)pyrrolidin-2-yl)methyl)-6-(4-fluorophenyl)-1H-indole-2-carboxamide
Protocol: The ability of a compound to produce an antibiotic effect can be determined using a method as described in Example 11. Data for representative compounds used in combination with the bacterial efflux pump inhibitor (EPI) N-(((2S,4R)-4-(aminomethyl)pyrrolidin-2-yl)methyl)-6-(4-fluorophenyl)-1H-indole-2-carboxamide is shown in Table 1.
as §1
The EPI assay for the purposes of these studies represents a MIC assay in which the MIC of the antibiotic against the bacteria is tested in the presence of an experimental efflux pump inhibitor (EPI). The highest concentration of the EPI present in the assay typically is ½ of the intrinsic MIC of the compound. […] Using serial dilutions of the EPI, its enhancement of antibiotic activity was then evaluated. The relative EPI activity was decided by comparing the MIC of the antibiotic in the presence of the EPI compound with the intrinsic MIC of the antibiotic alone. For comparative purposes, we generally used EPIs at concentration of 12.5 and 6.25 μg/ml against varying concentration of our test antibiotic.

[3] = system: E. coli ATCC 25922; experiment: Intrinsic MIC assay (broth microdilution), E. coli; assay type: cell-based, Escherichia coli; conditions: for MIC: Escherichia coli
Protocol: as §1, §2

[4] = system: K. pneumoniae ATCC 10031; experiment: Intrinsic MIC assay (broth microdilution), K. pneumoniae; assay type: cell-based, Klebsiella pneumoniae; conditions: for MIC: Klebsiella pneumoniae
Protocol: as §1, §2

[5] = system: A. baumannii ATCC 19606; experiment: Intrinsic MIC assay (broth microdilution), A. baumannii; assay type: cell-based, Acinetobacter baumannii; conditions: for MIC: Acinetobacter baumannii
Protocol: as §1, §2

[6] = P. Aeruginosa PAO1, without EPI
[7] = ATCC25922, E. coli ATCC 25922, read-out: Intrinsic MIC
[8] = ATCC10031, K. pneumoniae ATCC 10031, read-out: Intrinsic MIC
[9] = ATCC19606, A. baumannii ATCC 19606, read-out: Intrinsic MIC
[10] = 18 h, P. Aeruginosa PAO1, without EPI

| Molecule | Intrinsic MIC [1, 6] | MIC in the Presence of EPI* [2] | Intrinsic MIC ([3]; E. coli ATCC 25922) | Intrinsic MIC ([4]; K. pneumoniae ATCC 10031) | Intrinsic MIC ([5]; A. baumannii ATCC 19606) | MIC [3, 7] | MIC [4, 8] | MIC [5, 9] | MIC ([1]; PAO1, 18 h) | MIC ([3]; ATCC25922, read-out: Intrinsic MIC) | MIC ([4]; ATCC10031, read-out: Intrinsic MIC) | MIC ([5]; ATCC19606, read-out: Intrinsic MIC) | MIC [1, 10] |
| --- | --- | --- | --- | --- | --- | --- | --- | --- | --- | --- | --- | --- | --- |
| 1-(5-Bromo-1H-indol-2-yl)ethane-1,2-diamine [Example 6] | 256 µg/mL | 128 µg/mL | 128 µg/mL | 64 µg/mL | 128 µg/mL |  |  |  |  |  |  |  |  |
| CC(N)c1cc2cc(Br)ccc2[nH]1 (centres unmarked) [Example 1, 1-(5-Bromo-1H-indol-2-yl)ethan-1-amine] | 128 µg/mL | 8 µg/mL |  |  |  | 128 µg/mL (≈ 535 µM) | 64 µg/mL (≈ 268 µM) | 128 µg/mL (≈ 535 µM) |  |  |  |  |  |
| CCCCC(N)c1cc2cc(Br)ccc2[nH]1 (centres unmarked) [Example 2, 1-(5-Bromo-1H-indol-2-yl)pentan-1-aminium chloride] |  | 64 µg/mL |  |  |  |  |  |  | > 256 µg/mL | 16 µg/mL | 16 µg/mL | 32 µg/mL |  |
| CNC(C)c1cc2cc(Br)ccc2[nH]1 (centres unmarked) [Example 3, 1-(5-Bromo-1H-indol-2-yl)-N-methylethan-1-amine] |  | 64 µg/mL |  |  |  | 256 µg/mL (≈ 1010 µM) | 128 µg/mL (≈ 506 µM) | 64 µg/mL (≈ 253 µM) |  |  |  |  | > 256 µg/mL |
| CC(N)c1cc2ccccc2[nH]1 (centres unmarked) [Example 4, 1-(1H-Indol-2-yl)ethan-1-amine] |  | 128 µg/mL |  |  |  | > 256 µg/mL | > 256 µg/mL | > 256 µg/mL |  |  |  |  | > 256 µg/mL |
| CC(N)c1cc2cc(Br)ccc2n1C (centres unmarked) [Example 5, 1-(5-Bromo-1-methyl-1H-indol-2-yl)ethan-1-amine] |  | 64 µg/mL |  |  |  | 128 µg/mL (≈ 506 µM) | 64 µg/mL (≈ 253 µM) | 128 µg/mL (≈ 506 µM) |  |  |  |  | > 256 µg/mL |
| CC(N)c1cc2cc(F)ccc2[nH]1 (centres unmarked) [Example 7, 1-(5-Fluoro-1H-indol-2-yl)ethan-1-amine] | 256 µg/mL | 16 µg/mL |  |  |  | > 256 µg/mL | > 256 µg/mL | > 256 µg/mL |  |  |  |  |  |
| COc1ccc2[nH]c(C(C)N)cc2c1 (centres unmarked) [Example 8, 1-(5-Methoxy-1H-indol-2-yl)ethan-1-amine] |  | 256 µg/mL |  |  |  | > 256 µg/mL | > 256 µg/mL | 256 µg/mL (≈ 1350 µM) |  |  |  |  | > 256 µg/mL |
| CC(N)c1cc2cc(C(F)(F)F)ccc2[nH]1 (centres unmarked) [Example 9, 1-(5-(Trifluoromethyl)-1H-indol-2-yl)ethan-1-amine] |  | 16 µg/mL |  |  |  | 128 µg/mL (≈ 561 µM) | 64 µg/mL (≈ 280 µM) | 64 µg/mL (≈ 280 µM) |  |  |  |  | > 256 µg/mL |
| CC(N)c1cc2ccc(Br)cc2[nH]1 (centres unmarked) [Example 10, 1-(6-Bromo-1H-indol-2-yl)ethan-1-amine] |  | 32 µg/mL |  |  |  | 256 µg/mL (≈ 1070 µM) | 128 µg/mL (≈ 535 µM) | 128 µg/mL (≈ 535 µM) |  |  |  |  | > 256 µg/mL |
| CC(N)c1cc2cc(OC(F)(F)F)ccc2[nH]1 (centres unmarked) [Example 11, 1-(5-(Trifluoromethoxy)-1H-indol-2-yl)ethan-1-amine] |  | 64 µg/mL |  |  |  | 128 µg/mL (≈ 524 µM) | 64 µg/mL (≈ 262 µM) | 64 µg/mL (≈ 262 µM) |  |  |  |  | > 256 µg/mL |
| CC(c1cc2ccccc2[nH]1)N(C)C (centres unmarked) [Example 12, 1-(1H-Indol-2-yl)-N,N-dimethylethan-1-amine] |  | 256 µg/mL |  |  |  | > 256 µg/mL | > 256 µg/mL | > 256 µg/mL |  |  |  |  | > 256 µg/mL |
| NCc1cc2ccc(Br)cc2[nH]1 [Example 13, (6-Bromo-1H-indol-2-yl)methanamine] |  | 16 µg/mL |  |  |  | 256 µg/mL (≈ 1140 µM) | 256 µg/mL (≈ 1140 µM) | 128 µg/mL (≈ 569 µM) |  |  |  |  | 64 µg/mL (≈ 284 µM) |
